Measurements from US20050203191A1, “1-Aminocyclohexane derivatives for the treatment of agitation and other behavioral disorders, especially those associated with alzheimer's disease” (priority 2004, published 2005).

Tested on: patients with moderate-to-severe AD
Experiment: MD-01: 24-week trial of memantine as monotherapy
Type: in vivo, human
Conditions: MD-01, week 24, ITT LOCF
Description: MD-01: MD-01 was a trial evaluating memantine as monotherapy for the treatment of patients with moderate-to-severe AD lasting for 24 weeks. About 350 patients were enrolled. Efficacy was evaluated using the Severe Impairment Battery (SIB), the Assessment of Daily Living (ADL) and the CIBIC-plus Scales.
The five memantine trials were evaluated using an analysis of patient for a population having an NPI agitation subscale score of >4 ([…]) and for a population having an NPI score of <4 ([…]). For each NPI population, changes in SIB, ADAS-cog and/or ADL were calculated using the least square (LS) mean difference for memantine and placebo-treated patients. Similarly, for each NPI population, the raw mean difference between memantine and placebo was calculated for the CIBIC-plus results.
For primary efficacy measurements the comparison between memantine and placebo was performed using two-way analysis of covariance (ANCOVA) with treatment group and center as the two factors, and the baseline scores as covariate. Both the LOCF imputation approach and the OC approach are performed at the end of the trials.
For secondary efficacy measurements, the comparison between memantine and placebo was performed using two-way analysis of covariance (ANCOVA) with treatment group and center as the two main effects, and the baseline scores as covariate. Descriptive statistics were calculated by Visit. Again, all analyses were performed using both the LOCF imputation approach and the OC approach.
Results of ANCOVA were summarized using least square (LS) means for each treatment group with corresponding standard error (SE), the between-treatment (2-24 week) difference in the least square means with corresponding 95% confidence interval, and the between-treatment p-value corresponds to the SAS Type III sum of squares.
In data Tables 5-19, the Overall Memantine versus Placebo columns of studies MD-01, MD-02, MD-10 and MD-12 used an ANCOVA model with baseline total score as covariate, treatment and study center as factors for SIB, ADL or ADAS-cog; CMH test controlling for study center for CIBIC-Plus. For MZ-9605, results are based on arithmetic means and the Wilcoxon-Mann-Whitney test. The Agitation score columns/NPI/antipsychotics columns, except CIBIS-Plus, calculated the p-values and LS mean differences within the subgroups from an ANCOVA model with baseline total score as covariate, subgroup (yes/no), treatment, and treatment by subgroup interactions as factors. For CIBIS-Plus, the p-values and raw mean differences within a subgroup were calculated using the CMH test controlling for study center.
Patients in the same five trials described above were stratified into two sub-groups in a second analysis, those with an NPI total score in the top quartile (≧75%), or those more severely impaired at baseline, and those with an NPI total score <75%, or less severe impairment at baseline. Similar to as in Example 1, results were evaluated using the change in SIB (cognitive endpoint), and change in ADCS-ADL (functional endpoint), using the LS mean. The change in the CIBIC-plus (global endpoint) was assessed using the raw mean.
A sub-population of patients from the five trials, MD-01, MD-02, MD-10, MD-12, and MZ-9605, were concurrently taking antipsychotics.

[1] = NPI total score ≧=75% (top quartile)
[2] = antipsychotics usage “YES” (N = n)
[3] = antipsychotics usage “YES” (N = y)
[4] = baseline NPI agitation score <4
[5] = baseline NPI agitation score ≧=4
[6] = baseline NPI agitation score ≧=4, listed as MEM

## CC12CC3CC(C)(C1)CC(N)(C3)C2 [memantine, 1-amino-3,5-dimethyl adamantane]
NPI total score <75%
  ADCS-ADL (change) LS Mean Diff., MEM v. PLA: 0.87
  ADCS-ADL (change) mean: −1.1
  CIBIC-PLUS Raw Mean Diff., MEM v. PLA: −0.2
  CIBIC-PLUS mean: 4.3
  SIB (change) LS Mean Diff., MEM v. PLA: 0.3
  SIB (change) mean: −1.2
[1]
  ADCS-ADL (change) LS Mean Diff., MEM v. PLA: −0.05
  ADCS-ADL (change) mean: −2.3
  CIBIC-PLUS Raw Mean Diff., MEM v. PLA: −0.2
  CIBIC-PLUS mean: 4.5
  SIB (change) LS Mean Diff., MEM v. PLA: 3.5
  SIB (change) mean: −2.8
[2]
  ADCS-ADL (change) LS Mean Diff., MEM v. PLA: 0.8
  ADCS-ADL (change) mean: −0.8
  CIBIC-PLUS Raw Mean Diff., MEM v. PLA: −0.26
  CIBIC-PLUS mean: 4.26
  SIB (change) LS Mean Diff., MEM v. PLA: 1.7
  SIB (change) mean: −0.5
[3]
  ADCS-ADL (change) LS Mean Diff., MEM v. PLA: −0.15
  ADCS-ADL (change) mean: −3.8
  CIBIC-PLUS Raw Mean Diff., MEM v. PLA: −0.1
  CIBIC-PLUS mean: 4.63
  SIB (change) LS Mean Diff., MEM v. PLA: −1.9
  SIB (change) mean: −6.2
[4]
  ADCS-ADL (change) LS Mean Diff., MEM v. PLA: 0.36
  ADCS-ADL (change) mean: −1.3
  CIBIC-PLUS Raw Mean Diff., MEM v. PLA: −0.2
  CIBIC-PLUS mean: 4.3
  SIB (change) LS Mean Diff., MEM v. PLA: −0.15
  SIB (change) mean: −1.9
[5]
  ADCS-ADL (change) LS Mean Diff., MEM v. PLA: 1.18
  ADCS-ADL (change) mean: −3.2
  CIBIC-PLUS Raw Mean Diff., MEM v. PLA: 0
  CIBIC-PLUS mean: 4.7
  SIB (change) LS Mean Diff., MEM v. PLA: 4.65
  SIB (change) mean: −1.0
[6]
  ADCS-ADL (change) mean: −2.2
  CIBIC-PLUS Raw Mean Diff., MEM v. PLA: 0.0
overall
  ADCS-ADL (change) LS Mean Diff., MEM v. PLA: 0.70
  ADCS-ADL (change) LS mean: −2.00
  CIBIC-PLUS LS mean: 4.30
  CIBIC-PLUS Raw Mean Diff., MEM v. PLA: −0.30
  SIB (change) LS Mean Diff., MEM v. PLA: 0.60
  SIB (change) LS mean: −2.00
